One series concerns the target T1, human MAO-A (Homo sapiens, UniProt P21397).
T1 construct: purchased Sigma-Aldrich
T1 sequence (P21397 1-527): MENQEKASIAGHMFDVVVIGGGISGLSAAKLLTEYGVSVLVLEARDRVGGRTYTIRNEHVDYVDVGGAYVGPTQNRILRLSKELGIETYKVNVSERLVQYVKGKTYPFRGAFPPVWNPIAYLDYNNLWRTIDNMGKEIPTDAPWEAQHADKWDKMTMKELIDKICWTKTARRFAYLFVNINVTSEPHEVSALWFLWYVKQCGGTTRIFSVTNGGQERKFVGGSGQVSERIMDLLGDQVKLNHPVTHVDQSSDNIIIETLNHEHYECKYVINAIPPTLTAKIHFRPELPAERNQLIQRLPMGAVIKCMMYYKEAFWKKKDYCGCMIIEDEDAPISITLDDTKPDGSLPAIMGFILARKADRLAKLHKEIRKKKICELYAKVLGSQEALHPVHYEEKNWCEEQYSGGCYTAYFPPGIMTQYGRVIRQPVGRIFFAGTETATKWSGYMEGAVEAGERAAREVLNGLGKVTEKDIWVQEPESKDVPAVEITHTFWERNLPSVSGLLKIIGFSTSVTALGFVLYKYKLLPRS
Put plainly: IC50 determination for MAO-A inhibition (kynuramine, fluorescence). Format: biochemical. Particulars: recombinant hMAO-A, kynuramine 50 μM, mean ± SD (triplicate). As to the method: (§1) IC50 values for the inhibition of MAO were determined by using the recombinant human MAO-A and MAO-B enzymes (Sigma-Aldrich). Enzyme reactions were performed at a final volume of 200 µL in white 96-well microplates (Eppendorf), with the reaction solvent consisting of potassium phosphate buffer (100 mM, pH 7.4, adjusted to isotonicity with KCl). The reactions contained the nonselective MAO substrate, kynuramine (50 μM), and the test inhibitors at 0.003–100 µM. The test compounds were initially dissolved in DMSO (100%), and after addition to the reactions yielded a concentration of 4% DMSO. Control reactions were included, which contained substrate and 4% DMSO but no test inhibitor. The MAO reactions were started by adding MAO-A (0.0075 mg protein/mL) or MAO-B (0.015 mg protein/mL), and were subsequently incubated for a period of 20 min (37 °C) in a convection oven. A volume of 80 µL 2 N sodium hydroxide was added to the reactions, and the fluorescence intensity of 4-hydroxyquinoline (the end-product of the MAO-catalyzed metabolism of kynuramine) in the reactions was measured at λex 310 and λem 400 nm. To quantify 4-hydroxyquinoline, a calibration curve (linear) ranging from 0.047 to 1.56 μM, was employed. […] These measurements were carried out in triplicate and the IC50 values are presented as the mean ± standard deviation (SD)[18].
(§2) The formation of the dihydropyridinium species (MMDP^+) as a MAO-catalyzed oxidation product of MMTP was monitored at 420 nm. […] Based on this, the IC50 values were determined using kynuramine as a nonselective substrate. The rate of oxidation of kynuramine by MAO was monitored by measuring the fluorescence of the oxidation product, 4-hydroxyquinoline (λex= 310 nm; λem= 400 nm).

In the next series the target is T2, human MAO-B (Homo sapiens, UniProt P27338).
T2 construct: purchased Sigma-Aldrich
T2 sequence (P27338 1-520): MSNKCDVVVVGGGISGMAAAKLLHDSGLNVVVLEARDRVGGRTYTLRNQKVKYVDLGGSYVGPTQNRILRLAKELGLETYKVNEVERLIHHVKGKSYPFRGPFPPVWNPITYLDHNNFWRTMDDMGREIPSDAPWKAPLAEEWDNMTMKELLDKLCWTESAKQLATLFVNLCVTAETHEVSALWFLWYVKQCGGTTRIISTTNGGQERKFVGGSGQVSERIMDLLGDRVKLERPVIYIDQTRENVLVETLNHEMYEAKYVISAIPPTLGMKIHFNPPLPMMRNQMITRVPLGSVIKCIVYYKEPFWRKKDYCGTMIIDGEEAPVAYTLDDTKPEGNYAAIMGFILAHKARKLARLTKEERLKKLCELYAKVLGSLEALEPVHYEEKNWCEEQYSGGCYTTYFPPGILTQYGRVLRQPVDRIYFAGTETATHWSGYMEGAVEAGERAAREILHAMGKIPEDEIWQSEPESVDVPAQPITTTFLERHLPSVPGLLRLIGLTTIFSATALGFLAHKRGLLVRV
Put plainly: IC50 determination for MAO-B inhibition (kynuramine, fluorescence). In kind it is biochemical. The conditions noted are these: for Selectivity index: SI = IC50(MAO-A)/IC50(MAO-B); for IC50: recombinant hMAO-B, kynuramine 50 μM, mean ± SD (triplicate). The protocol: as §1, §2

Where only a bound is given, the exact number is not on record here.

The term IC50 denotes the concentration needed to halve the response being measured. As to `COc1cc(OC)c(/C=C/C(=O)c2ccc(F)cc2)c(OC)c1` [Compound 19, (E)-1–(4-fluorophenyl)-3–(2,4,6-trimethoxyphenyl)prop-2-en-1-one], the figures for the IC50 at human MAO-A and on human MAO-B were 0.444 ± 0.039 µM and greater than 100 µM, respectively. At human MAO-B, this compound yielded a Selectivity index of less than 0.004.
What is called melting point is the temperature, or range, at which the solid turns liquid. Regarding `COc1cccc(/C=C/C(=O)c2ccc(Br)cc2)c1OC` [Compound 21, (E)-1–(4-bromophenyl)-3–(2,3-dimethoxyphenyl)prop-2-en-1-one], the melting point was 120 to 124 °C. The IC50 on human MAO-A turned out to be 6.59 ± 0.422 µM. Further, on human MAO-B, the Selectivity index was found to be 37 and the IC50 amounted to 0.174 ± 0.015 µM.
In turn, `COc1ccccc1/C=C/C(=O)c1ccc(Br)cc1` [Compound 20, (E)-1–(4-bromophenyl)-3–(2-methoxyphenyl)prop-2-en-1-one] showed a melting point of 73 to 77 °C. The IC50 on human MAO-A stood at 5.81 ± 0.878 µM. Also, on human MAO-B, the Selectivity index is given as 5.8 and the IC50 is 0.999 ± 0.276 µM.
The compound `CSc1ccc(C(=O)/C=C/c2cccc(Br)c2)cc1` [Compound 11, (E)-3–(3-bromophenyl)-1–(4-(methylthio)phenyl)prop-2-en-1-one] registered a melting point of 139 to 143 °C. The IC50 on human MAO-A is 96.6 ± 5.21 µM. At human MAO-B, the Selectivity index is recorded as 487 and the IC50 was found to be 0.198 ± 0.012 µM.
`COc1cc(Br)ccc1/C=C/C(=O)c1ccc(S(C)(=O)=O)cc1` [Compound 10, (E)-3–(4-bromo-2-methoxyphenyl)-1–(4-(methylsulfonyl)phenyl)prop-2-en-1-one] came in with a melting point of 199 to 203 °C. The IC50 at human MAO-A amounted to 87.3 ± 9.34 µM. At human MAO-B, the Selectivity index stood at 150 and the IC50 turned out to be 0.582 ± 0.03 µM.
The compound `O=C(/C=C/c1ccc([N+](=O)[O-])cc1)c1ccc(Cl)cc1` [Compound 13, (E)-1–(4-chlorophenyl)-3–(4-nitrophenyl)prop-2-en-1-one] displayed a melting point of 162 to 166 °C. Further, the IC50 at human MAO-A was found to be 45.5 ± 2.93 µM. Also, the IC50 on human MAO-B amounted to 0.034 ± 0.006 µM.
In the case of `COc1cc(OC)c(/C=C/C(=O)c2ccc(Br)cc2)c(OC)c1` [Compound 18, (E)-1–(4-bromophenyl)-3–(2,4,6-trimethoxyphenyl)prop-2-en-1-one], the IC50 at human MAO-A was determined as 0.56 ± 0.076 µM. Further, at human MAO-B, the Selectivity index is less than 0.005 and the IC50 was greater than 100 µM.
As for `O=C(/C=C/c1cccc2c1OCO2)c1ccc(Cl)cc1` [Compound 6, (E)-3-(benzo[d][1,3]dioxol-4-yl)-1–(4-chlorophenyl)prop-2-en-1-one], the melting point lay in the range of 83 to 87 °C. Besides, at human MAO-A, the IC50 turned out to be 18.1 ± 3.49 µM. On human MAO-B, the Selectivity index was determined as 130 and the IC50 was 0.139 ± 0.019 µM.
For `O=C(/C=C/c1ccc(Br)cc1)c1ccc2c(c1)OCO2` [Compound 15, (E)-1-(benzo[d][1,3]dioxol-5-yl)-3–(4-bromophenyl)prop-2-en-1-one] the same measures were 150 to 153 °C, 0.173 ± 0.003 µM, 1.7 and 0.102 ± 0.009 µM.
Take `CN(C)c1ccc(/C=C/C(=O)c2cccc(C(F)(F)F)c2)cc1` [Compound 1, (E)-3–(4-(dimethylamino)phenyl)-1–(3-(trifluoromethyl)phenyl)prop-2-en-1-one]: the IC50 on human MAO-A was 14.3 ± 1.81 µM. Besides, at human MAO-B, the Selectivity index stood at 116 and the IC50 amounted to 0.123 ± 0.003 µM.
In turn, `CCOc1cccc(/C=C/C(=O)c2ccc(Br)cc2)c1OCC` [Compound 22, (E)-1–(4-bromophenyl)-3–(2,3-diethoxyphenyl)prop-2-en-1-one] returned a melting point of 75 to 79 °C. Moreover, the IC50 on human MAO-A is greater than 100 µM. Moreover, on human MAO-B, the IC50 worked out at 15.6 ± 0.803 µM.
On to `CS(=O)(=O)c1ccc(C(=O)/C=C/c2ccc(Br)cc2)cc1` [Compound 9, (E)-3–(4-bromophenyl)-1–(4-(methylsulfonyl)phenyl)prop-2-en-1-one], for which the melting point was in the range of 206 to 210 °C. Moreover, at human MAO-A, the IC50 is greater than 100 µM. Moreover, at human MAO-B, the Selectivity index is given as greater than 240 and the IC50 stood at 0.404 ± 0.064 µM.
Taken in the same sequence, the figures for `O=C(/C=C/c1cccc2c1OCO2)c1cccc(Cl)c1` [Compound 8, (E)-3-(benzo[d][1,3]dioxol-4-yl)-1–(3-chlorophenyl)prop-2-en-1-one] were 79 to 83 °C, greater than 100 µM, greater than 1720 and 0.058 ± 0.009 µM.
For `O=C(/C=C/c1cccc2c1OCO2)c1cccc(Br)c1` [Compound 7, (E)-3-(benzo[d][1,3]dioxol-4-yl)-1–(3-bromophenyl)prop-2-en-1-one] the same measures were 107 to 111 °C, greater than 100 µM, greater than 1230 and 0.081 ± 0.012 µM.
For `O=C(/C=C/c1cccc2c1OCO2)c1ccc(Br)cc1` [Compound 5, (E)-3-(benzo[d][1,3]dioxol-4-yl)-1–(4-bromophenyl)prop-2-en-1-one] the same measures were 96 to 100 °C, 7.18 ± 0.755 µM, 67 and 0.106 ± 0.012 µM.
The compound `O=C(/C=C/c1ccc([N+](=O)[O-])cc1)c1ccc(F)cc1` [Compound 12, (E)-1–(4-fluorophenyl)-3–(4-nitrophenyl)prop-2-en-1-one] registered a melting point of 165 to 169 °C. The IC50 at human MAO-A turned out to be 11.9 ± 0.822 µM. Further, at human MAO-B, the Selectivity index amounted to 172 and the IC50 amounted to 0.069 ± 0.006 µM.
With `CN(C)c1ccc(/C=C/C(=O)c2ccc(C(F)(F)F)cc2)cc1` [Compound 2, (E)-3–(4-(dimethylamino)phenyl)-1–(4-(trifluoromethyl)phenyl)prop-2-en-1-one], the IC50 at human MAO-A was greater than 100 µM. In addition, at human MAO-B, the Selectivity index is greater than 260 and the IC50 is 0.383 ± 0.061 µM.
For `CN(C)c1ccc(/C=C/C(=O)c2ccc(Cl)cc2)cc1` [Compound 4, (E)-1–(4-chlorophenyl)-3–(4-(dimethylamino)phenyl)prop-2-en-1-one] the same measures were greater than 100 µM, greater than 310 and 0.321 ± 0.023 µM.
For `CN(C)c1ccc(/C=C/C(=O)c2ccc(Br)cc2)cc1` [Compound 3, (E)-1–(4-bromophenyl)-3–(4-(dimethylamino)phenyl)prop-2-en-1-one] the same measures were greater than 100 µM, greater than 185 and 0.539 ± 0.058 µM.

Values taken from PMC6442233, “SAR and molecular mechanism studies of monoamine oxidase inhibition by selected chalcone analogs” (Journal of Enzyme Inhibition and Medicinal Chemistry, 2019).
